The test system of the experiment is MV-4-11 cells. In words: Gene expression microarray analysis (Affymetrix PrimeView) and GSEA. In kind it is cell-based, human. Details: RFU PODN (11730768_x_at) / Fold change /veh PODN (11730768_x_at) / RFU LINC00158 (11744669_a_at) / Fold change /veh LINC00158 (11744669_a_at) / RFU DUSP10 (11751237_a_at) / Fold change /veh DUSP10 (11751237_a_at) / RFU ID3 (11757404_x_at) / Fold change /veh ID3 (11757404_x_at) / RFU PLEKHG5 (11737974_s_at) / Fold change /veh PLEKHG5 (11737974_s_at) / RFU LRRC4B (11730491_at) / Fold change /veh LRRC4B (11730491_at) / RFU GIMAP4 (11747438_a_at) / Fold change /veh GIMAP4 (11747438_a_at) / RFU KRT8 (11758183_x_at) / Fold change /veh KRT8 (11758183_x_at) / RFU CNN1 (11734310_a_at) / Fold change /veh CNN1 (11734310_a_at) / RFU VPS37D (11726825_at) / Fold change /veh VPS37D (11726825_at) / RFU C10orf10 (11716522_x_at) / Fold change /veh C10orf10 (11716522_x_at) / RFU KIR2DL2 /// KIR2DL4 /// KIR2DL5A /// KIR2DL5B /// KIR2DS1 /// KIR2DS2 /// KIR2DS3 /// KIR2DS4 /// KIR3DL3 /// KIR3DL3 /// KIR3DS1 (11738374_at) / Fold change /veh KIR2DL2 /// KIR2DL4 /// KIR2DL5A /// KIR2DL5B /// KIR2DS1 /// KIR2DS2 /// KIR2DS3 /// KIR2DS4 /// KIR3DL3 /// KIR3DL3 /// KIR3DS1 (11738374_at) / RFU C1QL1 (11718748_at) / Fold change /veh C1QL1 (11718748_at) / RFU TMPRSS4 (11747572_a_at) / Fold change /veh TMPRSS4 (11747572_a_at) / RFU HAMP (11756126_x_at) / Fold change /veh HAMP (11756126_x_at) / RFU RNFT2 (11725882_a_at) / Fold change /veh RNFT2 (11725882_a_at) / RFU NR4A2 (11747474_a_at) / Fold change /veh NR4A2 (11747474_a_at) / RFU ABCC12 (11746883_a_at) / Fold change /veh ABCC12 (11746883_a_at) / RFU TMEM136 (11760407_x_at) / Fold change /veh TMEM136 (11760407_x_at) / RFU CLDN22 /// WWC2 (11732394_at) / Fold change /veh CLDN22 /// WWC2 (11732394_at) / RFU HLA-DPB1 (11760878_x_at) / Fold change /veh HLA-DPB1 (11760878_x_at) / RFU SPINT1 (11716480_a_at) / Fold change /veh SPINT1 (11716480_a_at) / RFU GAP43 (11754022_s_at) / Fold change /veh GAP43 (11754022_s_at) / RFU A4GNT (11735810_at) / Fold change /veh A4GNT (11735810_at) / RFU PRB3 (11715151_x_at) / Fold change /veh PRB3 (11715151_x_at) / RFU TUBB4B (11761932_at) / Fold change /veh TUBB4B (11761932_at) / RFU CAPN14 (11732068_a_at) / Fold change /veh CAPN14 (11732068_a_at) / RFU TMCC2 (11721928_a_at) / Fold change /veh TMCC2 (11721928_a_at) / RFU IRGQ (11745062_a_at) / Fold change /veh IRGQ (11745062_a_at) / RFU FAM174B (11720279_a_at) / Fold change /veh FAM174B (11720279_a_at) / RFU TMPRSS4 (11748680_a_at) / Fold change /veh TMPRSS4 (11748680_a_at) / RFU FAM212B (11763350_a_at) / Fold change /veh FAM212B (11763350_a_at) / RFU PLEKHG5 (11743358_a_at) / Fold change /veh PLEKHG5 (11743358_a_at) / RFU ZSCAN30 (11745921_a_at) / Fold change /veh ZSCAN30 (11745921_a_at) / RFU CMKLR1 (11741424_a_at) / Fold change /veh CMKLR1 (11741424_a_at) / RFU LOC101060620 /// MAPK8IP1 (11723275_at) / Fold change /veh LOC101060620 /// MAPK8IP1 (11723275_at) / RFU SPTSSB (11747773_x_at) / Fold change /veh SPTSSB (11747773_x_at) / RFU PRSS12 (11739890_at) / Fold change /veh PRSS12 (11739890_at) / RFU BIN1 (11741810_x_at) / Fold change /veh BIN1 (11741810_x_at) / RFU WNT11 (11732464_a_at) / Fold change /veh WNT11 (11732464_a_at) / RFU C10orf10 (11716521_a_at) / Fold change /veh C10orf10 (11716521_a_at) / RFU C5orf56 (11738089_at) / Fold change /veh C5orf56 (11738089_at) / RFU CYB561 (11721691_x_at) / Fold change /veh CYB561 (11721691_x_at) / RFU ANKRD19P (11752326_a_at) / Fold change /veh ANKRD19P (11752326_a_at) / RFU OR2T12 /// OR2T33 /// OR2T8 (11738714_s_at) / Fold change /veh OR2T12 /// OR2T33 /// OR2T8 (11738714_s_at) / RFU VCAN (11748164_a_at) / Fold change /veh VCAN (11748164_a_at) / RFU JSRP1 (11732532_at) / Fold change /veh JSRP1 (11732532_at) / RFU KRTAP10-11 (11738290_x_at) / Fold change /veh KRTAP10-11 (11738290_x_at) / RFU MYO3A (11730013_a_at) / Fold change /veh MYO3A (11730013_a_at) / RFU EBF3 (11725865_a_at) / Fold change /veh EBF3 (11725865_a_at) / RFU CAMK2N1 (11719241_x_at) / Fold change /veh CAMK2N1 (11719241_x_at) / RFU C5orf56 (11738088_a_at) / Fold change /veh C5orf56 (11738088_a_at) / RFU OLFML3 (11715873_a_at) / Fold change /veh OLFML3 (11715873_a_at) / RFU LOC100653217 /// NTM (11731650_a_at) / Fold change /veh LOC100653217 /// NTM (11731650_a_at) / RFU MAPK11 (11762145_a_at) / Fold change /veh MAPK11 (11762145_a_at) / RFU FIZ1 (11724087_x_at) / Fold change /veh FIZ1 (11724087_x_at) / RFU OASL (11726364_x_at) / Fold change /veh OASL (11726364_x_at) / RFU SOX15 (11748057_x_at) / Fold change /veh SOX15 (11748057_x_at) / RFU CD79A (11719716_a_at) / Fold change /veh CD79A (11719716_a_at) / RFU HIST1H1D (11736915_at) / Fold change /veh HIST1H1D (11736915_at) / RFU CASKIN2 (11723855_a_at) / Fold change /veh CASKIN2 (11723855_a_at) / RFU LOC730098 (11760151_x_at) / Fold change /veh LOC730098 (11760151_x_at) / RFU OR4N2 (11742367_at) / Fold change /veh OR4N2 (11742367_at) / RFU PRRT2 (11749266_a_at) / Fold change /veh PRRT2 (11749266_a_at) / RFU SNX32 (11753110_a_at) / Fold change /veh SNX32 (11753110_a_at) / RFU CDHR5 (11726645_a_at) / Fold change /veh CDHR5 (11726645_a_at) / RFU RCAN1 (11760418_a_at) / Fold change /veh RCAN1 (11760418_a_at) / RFU FAM167A (11723789_a_at) / Fold change /veh FAM167A (11723789_a_at) / RFU FAM26E (11764081_at) / Fold change /veh FAM26E (11764081_at) / RFU ISYNA1 (11749810_s_at) / Fold change /veh ISYNA1 (11749810_s_at) / RFU ACY1 (11761880_at) / Fold change /veh ACY1 (11761880_at) / RFU 11764098_at / Fold change /veh 11764098_at / RFU SAMD14 (11745864_x_at) / Fold change /veh SAMD14 (11745864_x_at) / RFU NPB (11741838_a_at) / Fold change /veh NPB (11741838_a_at) / RFU TMPRSS6 (11731388_a_at) / Fold change /veh TMPRSS6 (11731388_a_at) / RFU KRTAP10-2 (11738614_at) / Fold change /veh KRTAP10-2 (11738614_at) / RFU ARHGAP8 /// PRR5-ARHGAP8 (11727945_x_at) / Fold change /veh ARHGAP8 /// PRR5-ARHGAP8 (11727945_x_at) / RFU KRTAP5-7 /// NADSYN1 (11734609_at) / Fold change /veh KRTAP5-7 /// NADSYN1 (11734609_at) / RFU RASL12 (11751679_a_at) / Fold change /veh RASL12 (11751679_a_at) / RFU CDKN2B (11736163_a_at) / Fold change /veh CDKN2B (11736163_a_at) / RFU PRF1 (11729649_at) / Fold change /veh PRF1 (11729649_at) / RFU, ZNF638 /// ZNF638-IT1 / Fold change vs veh, ZNF638 /// ZNF638-IT1 / RFU, PANK3 / Fold change vs veh, PANK3 / RFU, SH3YL1 / Fold change vs veh, SH3YL1 / RFU, ZEB2 / Fold change vs veh, ZEB2 / RFU, NRIP1 / Fold change vs veh, NRIP1 / RFU, PTTG1IP / Fold change vs veh, PTTG1IP / RFU, CAPN2 / Fold change vs veh, CAPN2 / RFU, MED14 / Fold change vs veh, MED14 / RFU, SNORA58 / Fold change vs veh, SNORA58 / RFU, C1orf63 / Fold change vs veh, C1orf63 / RFU, LRRFIP1 / Fold change vs veh, LRRFIP1 / RFU, NDUFAF7 / Fold change vs veh, NDUFAF7 / RFU, SLC12A2 / Fold change vs veh, SLC12A2 / RFU, IBTK / Fold change vs veh, IBTK / RFU, ESF1 / Fold change vs veh, ESF1 / Fold change vs veh, TMEM50B / RFU, TAOK1 / Fold change vs veh, TAOK1 / RFU, ACBD3 / Fold change vs veh, ACBD3 / RFU, TMA16 / Fold change vs veh, TMA16 / RFU, RWDD3 / Fold change vs veh, RWDD3 / RFU, BCAT1 / Fold change vs veh, BCAT1 / RFU, EDEM3 / Fold change vs veh, EDEM3 / RFU, TMEM33 / Fold change vs veh, TMEM33 / RFU, WDR75 / Fold change vs veh, WDR75 / RFU, AHCTF1 / Fold change vs veh, AHCTF1 / RFU, TFRC / Fold change vs veh, TFRC / RFU, ZDHHC17 / Fold change vs veh, ZDHHC17 / RFU, NOM1 / Fold change vs veh, NOM1 / RFU, ARL8B / Fold change vs veh, ARL8B / RFU, ZBTB11 / Fold change vs veh, ZBTB11 / RFU, TAMM41 / Fold change vs veh, TAMM41 / RFU, KIAA1704 /// LOC100996395 / Fold change vs veh, KIAA1704 /// LOC100996395 / RFU, ING1 / Fold change vs veh, ING1 / RFU, TRMT61B / Fold change vs veh, TRMT61B / RFU, FUBP3 / Fold change vs veh, FUBP3 / RFU, TP53 / Fold change vs veh, TP53 / RFU, TNKS2 / Fold change vs veh, TNKS2 / RFU, ZFP14 / Fold change vs veh, ZFP14 / RFU, ACTR2 / Fold change vs veh, ACTR2 / RFU, PPP3R1 / Fold change vs veh, PPP3R1 / RFU, PIK3R1 / Fold change vs veh, PIK3R1 / RFU, HNRNPA1 / Fold change vs veh, HNRNPA1 / RFU, RNF170 / Fold change vs veh, RNF170 / RFU, ZNF28 / Fold change vs veh, ZNF28 / RFU, RNGTT / Fold change vs veh, RNGTT / RFU, OGT / Fold change vs veh, OGT / RFU, BRD1 / Fold change vs veh, BRD1 / RFU, MARS / Fold change vs veh, MARS / RFU, ZNF655 / Fold change vs veh, ZNF655 / RFU, FAHD1 / Fold change vs veh, FAHD1 / RFU, BDP1 / Fold change vs veh, BDP1 / RFU, LRRCC1 / Fold change vs veh, LRRCC1 / RFU, ARID1A / Fold change vs veh, ARID1A / RFU, ZNF146 / Fold change vs veh, ZNF146 / RFU, ZNF330 / Fold change vs veh, ZNF330 / RFU, GPN3 / Fold change vs veh, GPN3 / RFU, C9orf123 / Fold change vs veh, C9orf123 / RFU, N4BP2L2 / Fold change vs veh, N4BP2L2 / RFU, ARFIP1 / Fold change vs veh, ARFIP1 / RFU, FAM179B / Fold change vs veh, FAM179B / RFU, BCL10 / Fold change vs veh, BCL10 / RFU, UHRF1BP1L / Fold change vs veh, UHRF1BP1L / RFU, BET1 / Fold change vs veh, BET1 / RFU, CNOT2 / Fold change vs veh, CNOT2 / RFU, ZNF268 / Fold change vs veh, ZNF268 / Fold change vs veh, ZNF507 / RFU, DGCR2 / Fold change vs veh, DGCR2 / RFU, WDSUB1 / Fold change vs veh, WDSUB1 / Fold change vs veh, HSP90B1 /// MIR3652 / RFU, ADSS / Fold change vs veh, ADSS / RFU, GK / Fold change vs veh, GK / RFU, ZNF148 / Fold change vs veh, ZNF148 / RFU, TAF9 / Fold change vs veh, TAF9 / RFU, SLC1A5 / Fold change vs veh, SLC1A5 / RFU, SLMO2 / Fold change vs veh, SLMO2 / RFU, ABCC4 / Fold change vs veh, ABCC4 / RFU, LOC101060439 /// RAP1B / Fold change vs veh, LOC101060439 /// RAP1B / RFU, RFX7 / Fold change vs veh, RFX7 / RFU, GTPBP10 / Fold change vs veh, GTPBP10 / RFU, CNEP1R1 / Fold change vs veh, CNEP1R1 / RFU, BIVM-ERCC5 /// ERCC5 / Fold change vs veh, BIVM-ERCC5 /// ERCC5 / RFU, ILF3 / Fold change vs veh, ILF3 / RFU 11762660_at / Fold change /veh 11762660_at / RFU VCAN (11757783_s_at) / Fold change /veh VCAN (11757783_s_at) / RFU DDX43 (11728927_at) / Fold change /veh DDX43 (11728927_at) / RFU KRT8 (11758188_x_at) / Fold change /veh KRT8 (11758188_x_at) / RFU NKD1 (11759106_at) / Fold change /veh NKD1 (11759106_at) / RFU SRD5A1 (11742802_a_at) / Fold change /veh SRD5A1 (11742802_a_at) / RFU TPSAB1 /// TPSB2 (11721975_s_at) / Fold change /veh TPSAB1 /// TPSB2 (11721975_s_at) / RFU GSTM3 (11746129_a_at) / Fold change /veh GSTM3 (11746129_a_at) / RFU IL23R (11737362_x_at) / Fold change /veh IL23R (11737362_x_at) / RFU TMEM51 (11727254_a_at) / Fold change /veh TMEM51 (11727254_a_at) / RFU PIWIL2 (11732686_x_at) / Fold change /veh PIWIL2 (11732686_x_at) / RFU ORM1 (11744905_x_at) / Fold change /veh ORM1 (11744905_x_at) / RFU CCDC152 (11743942_at) / Fold change /veh CCDC152 (11743942_at) / RFU ECM1 (11717891_a_at) / Fold change /veh ECM1 (11717891_a_at) / RFU IL23R (11748794_a_at) / Fold change /veh IL23R (11748794_a_at) / RFU TNFAIP8L3 (11732012_x_at) / Fold change /veh TNFAIP8L3 (11732012_x_at) / RFU MBOAT4 (11741988_at) / Fold change /veh MBOAT4 (11741988_at) / RFU 11764193_at / Fold change /veh 11764193_at / RFU TMEM53 (11763286_at) / Fold change /veh TMEM53 (11763286_at) / RFU MAGEB2 (11727129_at) / Fold change /veh MAGEB2 (11727129_at) / RFU TMEM200A (11744735_a_at) / Fold change /veh TMEM200A (11744735_a_at) / RFU CCDC152 (11751479_a_at) / Fold change /veh CCDC152 (11751479_a_at) / RFU FAM211A (11726209_a_at) / Fold change /veh FAM211A (11726209_a_at) / RFU RGS16 (11746705_a_at) / Fold change /veh RGS16 (11746705_a_at) / RFU VCAN (11755009_s_at) / Fold change /veh VCAN (11755009_s_at) / RFU RHOB (11743442_s_at) / Fold change /veh RHOB (11743442_s_at) / RFU RGS16 (11720943_a_at) / Fold change /veh RGS16 (11720943_a_at) / RFU RGS16 (11720944_at) / Fold change /veh RGS16 (11720944_at) / RFU, VPS4B / Fold change vs veh, VPS4B / RFU, CREB1 / Fold change vs veh, CREB1 / RFU, DNAJC13 / Fold change vs veh, DNAJC13 / RFU, GNAQ / Fold change vs veh, GNAQ / RFU, CDK5R1 / Fold change vs veh, CDK5R1 / RFU, ZRANB3 / Fold change vs veh, ZRANB3 / RFU, CUL4A / Fold change vs veh, CUL4A / RFU, CCNY / Fold change vs veh, CCNY / RFU, UFL1 / Fold change vs veh, UFL1 / RFU, COG3 / Fold change vs veh, COG3 / RFU, DIAPH2 / Fold change vs veh, DIAPH2 / RFU, SKA2 / Fold change vs veh, SKA2 / RFU, AFF3 / Fold change vs veh, AFF3 / RFU, LMF1 / Fold change vs veh, LMF1 / RFU, IPO11 / Fold change vs veh, IPO11 / RFU, DFFB / Fold change vs veh, DFFB / RFU, FOXP1 / Fold change vs veh, FOXP1 / RFU, CARD8 / Fold change vs veh, CARD8 / RFU, STRN3 / Fold change vs veh, STRN3 / RFU, ADK / Fold change vs veh, ADK / RFU, RASSF2 / Fold change vs veh, RASSF2 / RFU, WIPF1 / Fold change vs veh, WIPF1 / RFU, LARP1B / Fold change vs veh, LARP1B / RFU, RASA1 / Fold change vs veh, RASA1 / RFU, RB1 / Fold change vs veh, RB1 / RFU, PPFIA1 / Fold change vs veh, PPFIA1 / RFU, MAT2A / Fold change vs veh, MAT2A / RFU, CCT5 / Fold change vs veh, CCT5 / RFU, WDR92 / Fold change vs veh, WDR92 / RFU, CUX1 / Fold change vs veh, CUX1 / RFU, TTC7A / Fold change vs veh, TTC7A / RFU, TMEM135 / Fold change vs veh, TMEM135 / RFU, DEPTOR / Fold change vs veh, DEPTOR / RFU, CPM / Fold change vs veh, CPM / RFU, DNAJB6 / Fold change vs veh, DNAJB6 / RFU, CACNA2D3 / Fold change vs veh, CACNA2D3 / RFU, DTX4 / Fold change vs veh, DTX4 / RFU, TFCP2 / Fold change vs veh, TFCP2 / RFU, GMCL1 /// GMCL1P1 / Fold change vs veh, GMCL1 /// GMCL1P1 / RFU, AEBP2 / Fold change vs veh, AEBP2 / RFU, SNHG1 /// SNORD22 /// SNORD25 /// SNORD26 /// SNORD27 /// SNORD28 /// SNORD29 /// SNORD31 / Fold change vs veh, SNHG1 /// SNORD22 /// SNORD25 /// SNORD26 /// SNORD27 /// SNORD28 /// SNORD29 /// SNORD31 / Fold change (Aza/veh), C12orf56 (ProbeSet 11735607_a_at) / Fold change (ACY-1035/veh), C12orf56 (ProbeSet 11735607_a_at) / Fold change (Aza/veh), FGFR1OP (ProbeSet 11751329_s_at) / Fold change (ACY-1035/veh), FGFR1OP (ProbeSet 11751329_s_at) / Fold change (Aza/veh), VPS36 (ProbeSet 11739960_a_at) / Fold change (ACY-1035/veh), VPS36 (ProbeSet 11739960_a_at) / RFU SYPL1 (11715823_x_at) / Fold change /veh SYPL1 (11715823_x_at) / RFU IGFBP7 (11715501_s_at) / Fold change /veh IGFBP7 (11715501_s_at) / RFU REEP3 (11722064_at) / Fold change /veh REEP3 (11722064_at) / RFU IGLL1 (11728026_x_at) / Fold change /veh IGLL1 (11728026_x_at): dose or concentration left out as unconfirmed. The settings on record: MV-4-11 cells, 48 hours.

Each structure is given as a SMILES string.

Regarding `Nc1ncn([C@@H]2O[C@H](CO)[C@@H](O)[C@H]2O)c(=O)n1` [azacitidine], the “RFU CAPN14 (11732068_a_at)” value is 10.94 RFU.

These data come from publication PMC5218480 (PLoS ONE, 2017).
